Measured values published in paper PMC9958325 (Nature Communications, 2023).
“And” between values parts separate entries of the source, which are not always exact repeats. Identical values can stand only once. Like-named read-outs stand apart in the source and are kept apart here.

Assays:
in vitro [1] = conditions: African green monkey, VeroE6 cells
VeroE6 cells [2] = conditions: African green monkey, 6 h
in vitro [3] = conditions: human, HeLa-ACE2-TMPRSS2 cells
in vivo = conditions: male, PXB (human liver-chimeric), mouse, po, 10 mg/kg
HeLa-ACE2-TMPRSS2 cells = assay: Cytotoxicity (WST-8) in noninfected HeLa-ACE2-TMPRSS2 cells; conditions: read-out: CC50, HeLa-ACE2-TMPRSS2
SARS-CoV-2UW-5250^Delta = tested on: SARS-CoV-2UW-5250^Delta; set-up: species or system hACE2 knock-in mice; conditions: mouse, in vivo, ip, 100 mg/kg
[4] = mouse, in vivo
human cathepsin L = target: T1, human cathepsin L (Homo sapiens, UniProt P07711); assay: Human cathepsin L inhibitor screening assay; assay type: biochemical; conditions: for % inhibition against human Cathepsin: triplicate; for IC50: 30 minute incubation, mean ± 1 S.D., n=3
T1 construct: purchased abcam ab197012
T1 sequence (P07711 114-333): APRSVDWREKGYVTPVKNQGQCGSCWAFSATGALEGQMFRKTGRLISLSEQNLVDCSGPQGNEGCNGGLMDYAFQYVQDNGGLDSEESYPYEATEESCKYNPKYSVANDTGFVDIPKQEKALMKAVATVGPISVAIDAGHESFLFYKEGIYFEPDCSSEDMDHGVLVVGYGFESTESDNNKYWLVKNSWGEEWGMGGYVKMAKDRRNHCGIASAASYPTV

SARS-CoV-2 M^pro = SARS-CoV-2 M^pro (Severe acute respiratory syndrome coronavirus 2, UniProt P0DTD1); conditions: PDB 8DOX (TKB245), 8DPR (TKB248)
SARS-CoV-2 M^pro/3CL^pro = SARS-CoV-2 M^pro/3CL^pro (Severe acute respiratory syndrome coronavirus 2, UniProt P0DTD1); assay type: biochemical; set-up: IC95, individual assays / IC95, Average: unit: µM
VeroE6 cells [5] = assay: Cytotoxicity (WST-8) in noninfected VeroE6 cells
[6] = Pharmacokinetic study in ICR mice
[7] = tested on: SARS-CoV-2NC928-2N^Omicron_BA.1; set-up: species or system hACE2 knock-in mice; conditions: mouse, in vivo; for Virus titer in lung: ip
A549-ACE2-TMPRSS2 cells = conditions: read-out: CC50, A549-ACE2-TMPRSS2; noninfected cells
[8] = target: authentic SARS-CoV-2 M^pro (Severe acute respiratory syndrome coronavirus 2, UniProt P0DTD1)
Glycine-added M^pro = Glycine-added M^pro (Severe acute respiratory syndrome coronavirus 2, UniProt P0DTD1)
[9] = tested on: SARS-CoV-2NCD1288^Omicron_BA.2; set-up: species or system hACE2 knock-in mice; conditions: mouse, in vivo, ip, 120 mg/kg
[10] = source data, M^pro enzyme assay
[11] = read-out: CC50, VeroE6 + 2 µM CP100356, CP100356 2 µM

SMILES	CC50 (HeLa-ACE2-TMPRSS2 cells) [µM]	Effect on human cathepsin L (in words) (human cathepsin L)	% inhibition against human Cathepsin (human cathepsin L; 0.00106 µM) [%]	% inhibition against human Cathepsin (human cathepsin L; 0.0053 µM) [%]	% inhibition against human Cathepsin (human cathepsin L; 0.0266 µM)	% inhibition against human Cathepsin (human cathepsin L; 0.6 µM)	% inhibition against human Cathepsin (human cathepsin L; 3.3 µM)	% inhibition against human Cathepsin (human cathepsin L; 16.6 µM)	IC50 (human cathepsin L) [µM]	Binding mode in co-crystal structure (SARS-CoV-2 M^pro)	SARS-CoV2 M^pro enzyme assay IC95 (SARS-CoV-2 M^pro/3CL^pro; FRET, mean ± 1 S.D.) [µM]	IC95, Average (SARS-CoV-2 M^pro/3CL^pro; [10])	CC50 (VeroE6 cells [5]; read-out: CC50, VeroE6) [µM]	CC50 (VeroE6 cells [5]; [11]) [µM]	CC50 (A549-ACE2-TMPRSS2 cells) [µM]	also measured
CC(C)(C)[C@H](NC(=O)C(F)(F)F)C(=O)N1C[C@H]2[C@@H]([C@H]1C(=O)N[C@H](C#N)C[C@@H]1CCNC1=O)C2(C)C [Nirmatrelvir, reference compound]																CC50 at 3 days (in vitro [1]): > 100 µM; Intracellular amount, avg (VeroE6 cells [2]; 10 µM): 0 pmol(total); Intracellular amount, individual (VeroE6 cells [2]; 10 µM): 0 pmol(total); intracellular compound, /1x10^6 (VeroE6 cells [2]; 10 µM): 0 /1x10^6; intracellular compound, pmol(total) (VeroE6 cells [2]; 10 µM): 0 pmol; Intracellular amount, avg (VeroE6 cells [2]; 50 µM): 0.03906 pmol(total); Intracellular amount, avg (VeroE6 cells [2]; 100 µM): 0.1149 pmol(total); CC50 at 3 days (in vitro [3]): > 100 µM; half-life (in vivo): 1.03 h
CC(C)(C)[C@H](NC(=O)C(F)(F)F)C(=O)N1C[C@H]2[C@@H]([C@H]1C(=O)N[C@@H](C[C@@H]1CCNC1=O)C(=O)c1nc3c(F)cccc3s1)C2(C)C [TKB245]	> 100	neither of human cysteine enzymes, cathepsin L and calpain, were significantly affected	0	0	0% and 0.8979%	0% and 2.5149%	9.142% and 0% and 2.217%	21.1326% and 17.6611% and 11.0896%	> 16	covalent bond formation between Cys145 and 4-fluorobenzothioazoly ketone	0.14 ± 0.07	0.1363	> 100	> 100	> 100	Virus titer in lung (SARS-CoV-2UW-5250^Delta): 6.24 Log10 PFU/gr and 6.89 Log10 PFU/gr; Body weights and survival rates [4]: no significant changes were recorded; IC95, individual assays (SARS-CoV-2 M^pro/3CL^pro; source data, M^pro enzyme assay, listed as TKB0245): 0.096 and 0.213 and 0.100; Plasma concentration ([6]; ICR mice, i.p. 10 mg/kg, 2:00:00, individual mice, 10 mg/kg): 528.9 ng/mL; Plasma concentration ([6]; ICR, i.p., 120 min, individual animals (2 per time point), LC/MS/MS): 528.86 ng/mL; Virus titer in lung ([7]; 100 mg/kg): 2.95 Log10 PFU/gr and 3.55 Log10 PFU/gr
CC(C)(C)[C@H](NC(=O)C(F)(F)F)C(=O)N1C[C@H]2[C@@H]([C@H]1C(=S)N[C@@H](C[C@@H]1CCNC1=O)C(=O)c1nc3c(F)cccc3s1)C2(C)C [TKB248]	> 100	neither of human cysteine enzymes, cathepsin L and calpain, were significantly affected	0	0	0%	0.7754% and 0%	3.874% and 0.1997% and 5.01%	10.3453% and 15.2677% and 19.1834%	> 16	covalent bond formation between Cys145 and 4-fluorobenzothioazoly ketone	6.00 ± 5.29	6.000	> 100	> 100	> 100	Body weights and survival rates ([4]; ip, 120 mg/kg): no significant changes were recorded; Peak ratio, Dimer-1X compound [8]: 42.6% and 25.2%; Peak ratio, M^pro Monomer [8]: 8.6% and 7.7%; IC50 (SARS-CoV-2 M^pro/3CL^pro; FRET, mean ± 1 S.D., read-out: SARS-CoV2 M^pro enzyme assay IC50): 0.074 ± 0.034 µM; IC95, individual assays (SARS-CoV-2 M^pro/3CL^pro; source data, M^pro enzyme assay, listed as TKB0248): 12.00 and 2.000 and 4.000; IC50 (SARS-CoV-2 M^pro/3CL^pro; source data, M^pro enzyme assay, listed as TKB0248, read-out: IC50, individual assays): 0.0472 µM and 0.0622 µM and 0.113 µM; IC50 (SARS-CoV-2 M^pro/3CL^pro; source data, M^pro enzyme assay, read-out: IC50, Average): 0.0741 µM; Peak ratio, Monomer (Glycine-added M^pro): 36.5%; Peak ratio, Monomer-1X compound (Glycine-added M^pro): 21.2%; Virus titer in lung [9]: 5.57 Log10 PFU/gr and 4.93 Log10 PFU/gr; lung virus titer, ave of log pfu/g [7]: 4.602 log pfu/g and 4.836 log pfu/g; Virus titer in lung ([7]; 120 mg/kg): 4.60 Log10 PFU/gr and 4.84 Log10 PFU/gr
